In patent publication US6379696B1, “Therapeutic preparation for the transdermal administration of active substances” (priority 1995, dated 2002):

Key:
[1] = Permeation rate of morphine base through excised guinea pig skin with added LOVASTATIN; details: LOVASTATIN 2%-wt. added; after 24 h; released in 0.9% salt solution, T=37° C., n=3
[2] = topical application; cited from earlier work

SMILES: CC[C@H](C)C(=O)O[C@H]1C[C@@H](C)C=C2C=C[C@H](C)[C@H](CC[C@@H]3C[C@@H](O)CC(=O)O3)[C@H]21 [LOVASTATIN]
- permeation rate of morphine base [1]: double
- DNA-synthesis in the epidermis [2]: increase
- cholesterol level in the skin [2]: decrease
- transepidermal loss of water [2]: increase
